Laboratory results: US20140363810A1, “METHOD OF MEASURING HUMAN CYP3A INDUCIBILITY” (SEKISUI MEDICAL CO., LTD., priority 2002, published 2014)

Assays:
[1] = system: CYP3A4 inducibility (luciferase reporter AdCYP3A4-362-7K with hPXR expression); assay: in vitro reporter assay, cultured cells infected with virus (A) (AdCYP3A4-362-7K) and virus (B) (AdhPXR); conditions: 10 μM, virus (A) AdCYP3A4-362-7K plus virus (B) AdhPXR
Protocol: (§1) A recombinant adenovirus was constructed through the following process.
(§2) Briefly, cells were seeded in a 24-well plate in an amount of 2.0×10^5 cells per well. On the following day; i.e., day 1, the cells were treated with a drug. On day 2, the drug-treated cells were infected with virus, and, 48 hours after viral infection, the cells were recovered. The recovered cells were lysed by use of a reporter lysis buffer (RLB), and the luciferase activity of the lysate was measured.
(§3) Next, virus (B) (AdhPXR) was employed to thereby cause strong expression of hPXR.

[2] = system: human CYP3A4 inducibility (luciferase reporter AdCYP3A4-362-7K with human PXR expression); assay: in vivo assay, mice infected with virus (A) (AdCYP3A4-362-7K) and virus (B) (AdhPXR); conditions: 100 mg/kg/day×3; virus (A) AdCYP3A4-362-7K, co-administration with virus (B) per FIG. 8
Protocol: (§4) The initial plan for viral administration was an intravenous route through the tail vein. […] Therefore, the route was changed to intraperitoneal administration so that the animal could not acutely respond to the virus. […] Two days after virus administration, each animal was dissected to remove the organ of interest (liver). The liver was homogenized and centrifuged at 9,000×g. Luciferase activity of the supernatant (S-9) was measured (FIG. 4).

[3] = system: CYP3A4 inducibility (luciferase reporter, CYP3A4 -362 to +11 fragment); assay: in vitro reporter (luciferase) assay, cultured cells infected with AdCYP3A4-362 virus; conditions: 10 μM in DMSO, human liver-cancer-derived cultured cells
Protocol: as §1, §2
All these drugs are known to elicit CYP3A4 induction when administered to humans.

[4] = system: CYP3A4 inducibility (luciferase reporter AdCYP3A4-362-7K); assay: in vitro reporter assay, cultured cells infected with virus (A) (AdCYP3A4-362-7K); conditions: 10 μM, without virus (B)
Protocol: as §1, §2, §3

[5] = system: CYP3A4 inducibility (luciferase reporter AdCYP3A4-362); assay: in vivo assay, luciferase activity in liver S-9 of mice given AdCYP3A4-362 virus; conditions: 100 mg/kg intraperitoneally once a day for three days, liver two days after virus
Protocol: as §4

Clc1ccccc1C(c1ccccc1)(c1ccccc1)n1ccnc1 [clotrimazole]
luciferase activity relative to non-treatment [1]: 60 times | attained inducibility (transcription activation) in mice infected with virus (A) [2]: 1,000 times | elevated luciferase activity level [3]: about eight | induction of luciferase activity [4]: 21 times | increase of luciferase activity in mouse liver S-9 compared with control [5]: about nine
